Where a name gives a salt, the structure may show the parent alone.

The test system of the assay is Aβ(1-42). The experiment in a line: Cell-based γ-secretase assay, Aβ(1-42) inhibition. Conditions: Homo sapiens; SH-SY5Y neuroblastoma cells overexpressing SPA4CT. Here is the method: Cell-Based γ-Secretase Assay
Human SH-SY5Y neuroblastoma cells overexpressing the direct γ-secretase substrate SPA4CT were induced with sodium butyrate (10 mM) for 4 hours prior to plating. Cells were plated at 35,000 cells/well/100 μl in 96-well plates in phenol red-free MEM/10% FBS, 50 mM HEPES, 1% Glutamine and incubated for 2 hrs at 37° C., 5% CO2.
Compounds for testing were diluted into Me2SO to give a ten point dose-response curve. Typically 10 μl of these diluted compounds in Me2SO were further diluted into 182 μl dilution buffer (phenol red-free MEM/10% FBS, 50 mM HEPES, 1% Glutamine) and 10 μl of each dilution was added to the cells in 96-well plates (yielding a final Me2SO concentration of 0.5%). Appropriate vehicle and inhibitor controls were used to determine the window of the assay.
After incubation overnight at 37° C., 5% CO2, 25 μl and 50 μl media were transferred into a standard Meso avidin-coated 96-well plate for detection of Aβ(40) and Aβ(42) peptides, respectively. 25 μl Meso Assay buffer (PBS, 2% BSA, 0.2% Tween-20) was added to the Aβ(40) wells followed by the addition of 25 μl of the respective antibody premixes to the wells:
Aβ(40) premix: 1 μg/ml ruthenylated G2-10 antibody, 4 μg/ml; and biotinylated 4G8 antibody diluted in Origen buffer
Aβ(42) premix: 1 μg/ml ruthenylated G2-11 antibody, 4 μg/ml; and biotinylated 4G8 antibody diluted in Origen buffer
(Biotinylated 4G8 antibody supplied by Signet Pathology Ltd; G2-10 and G2-11 antibodies supplied by Chemicon)
After overnight incubation of the assay plates on a shaker at 4° C., the Meso Scale Sector 6000 Imager was calibrated according to the manufacturer's instructions. After washing the plates 3 times with 150 μl of PBS per well, 150 μl Meso Scale Discovery read buffer was added to each well and the plates were read on the Sector 6000 Imager according to the manufacturer's instructions.
LD50 and IC50 values for inhibition of Aβ(40) and Aβ(42) were calculated by nonlinear regression fit analysis using the appropriate software (eg. Excel fit). The total signal and the background were defined by the corresponding Me2SO and inhibitor controls.
Broadly, the IC50 is the concentration at which inhibition is half-maximal. Read a low IC50 as inhibition by little substance. In turn, `COc1cc(-c2cn(Cc3ccc(-c4nc5ccccc5o4)cc3)nn2)ccc1-c1ccnc(C)c1` [Example 5] returned an IC50 of 392 nM.

Compound `COc1cc(-c2cn(Cc3ccc(C(C)(C)C)cc3)nn2)ccc1-c1ccnc(C)c1` [Example 3] gave an IC50 of 335 nM.

The compound `COc1cc(-c2cn(Cc3cc(C(F)(F)F)cc(C(F)(F)F)c3)nn2)ccc1-c1ccnc(C)c1` [Example 1, 4-{4-[1-(3,5-Bis-trifluoromethyl-benzyl)-1H-1,2,3-triazol-4-yl]-2-methoxy-phenyl}-2-methyl-pyridine trifluoromethansulfonate salt] showed an IC50 of 203 nM.

With `COc1cc(-c2cn(Cc3cc(F)cc(Cl)c3)nn2)ccc1-c1ccnc(C)c1` [Example 4], the half-maximal inhibitory concentration (IC50) came to 598 nM.

`COc1cc(-c2cn(Cc3ccc4c(c3)C(C)(C)CCC4(C)C)nn2)ccc1-c1ccnc(C)c1` [Example 6] showed an IC50 of 172 nM.

Values taken from patent publication US20110313001A1, “TRIAZOLE DERIVATIVES FOR TREATMENT OF ALZHEIMER'S DISEASE” (priority 2008, published 2011).
